According to patent publication US10400010B2, “Structure-based peptide inhibitors of P53 aggregation as a new approach to cancer therapeutics” (THE REGENTS OF THE UNIVERSITY OF CALIFORNIA, priority 2013, dated 2019):
Entries after “also recorded” stand apart in the source; their conditions may differ.

How the values were obtained:
[1] = test system: cancer cells bearing misfolded/aggregation-prone mutant p53; assay: Cell viability, standard MTS assay, 2D culture; format: cell-based; conditions: 24 hours
Description: (§1) B. and C. show one representative case of primary cells from ovarian cancer.
INH-1R caused cell death in a dose dependent manner with less than 50% of cancer cells surviving after only 24 hours of treatment with a dose of 10 μM in a 2D culture system as detected by a standard MTS assay (FIG. 7A). […] In this case cells were plated in 1:1 mixture of PrEGM:matrigel. After cell layer solidified, cells were overlaid with warm PrEGM media containing either the inhibitor or a scrambled control peptide at concentration ranging from 0.1 to 10 μM for 5 to 7 days.

[2] = Serum concentration by MRM mass spectrometry (pharmacokinetic profile); format: in vivo, Nude mice
Description: Nude mice were injected in the flank with OVCAR-3 cells and the resulting xenografts were allowed to grow for two weeks. The mice were then treated for three days via IP with 15 mg/kg of INH-1R CPP peptide or scrambled control peptide. They were divided in groups of two and sacrificed at 1, 2, 4, 8, 12 and 24 hours post final peptide injection. Two naïve mice were sacrificed before treatment to obtain a reference value. Peak serum concentration of INH-1R CPP (as well as control peptide) was detected at 1 hour post injection. Average of two mice are shown.
The peptide concentration decreased to approximately 0.3 μM 2 hours post infusion, and remained stable for up to 12 hours (FIG. 10). Given the relative stability of the peptide in serum, IV administration is an acceptable alternative route of administration.

[3] = test system: OVCAR-3 cells bearing the aggregation prone p53 R248Q mutation (xenograft); assay: OVCAR-3 xenograft tumor proliferation in vivo; parameters: species or system NOD/SCID mice
Description: A. Images of the xenografts from mice (n=3 for each group, one mouse had 2 xenografts) treated with INH-1R CPP, a scrambled peptide control, or vehicle for 14 days. […] C. Tumor volume was estimated daily.
In our in vivo studies, we attempted to mimic a post-surgical debulking situation in which patients with minimal residual tumor mass are administered chemotherapy. NOD/SCID mice were injected subcutaneously with OVCAR-3 cells bearing the aggregation prone p53 R248Q mutation and treated intraperitoneally with 15 mg/kg of either INH-1R as a single therapeutic agent, a control scrambled peptide, or vehicle daily for 14 days (FIG. 9).

[4] = molecular target: T1, p53 aggregation (segment p53252-258, LTIITLE) (Homo sapiens, UniProt P04637); assay: In vitro Thioflavin T aggregation assay; format: biochemical; conditions: different concentrations, down to molar ratio 1 inhibitor to 10 p53 molecules
T1 construct: made in house; host or cells: chemical synthesis
Description: The aggregation of p53 is monitored via Thioflavin T assay: an increase in Thioflavin T fluorescence is detected over time due to the formation of increasing amounts of amyloid to which the dye can specifically bind. […] The sequence of this segment, LTIITLE, is SEQ ID NO: 21.
One representative in vitro assay is the thioflavin T assay shown in FIG. 3 (Naiki, H., Higuchi, K., Hosokawa, M., and Takeda, T. (1989) Fluorometric determination of amyloid fibrils in vitro using the fluorescent dye, thioflavine T. Anal. Biochem., 177, 244-249). The assay can be performed using a target sequence peptide, such as LTIITLE (SEQ ID NO: 21), or it can be performed using full-length p53 (such as recombinant p53). In both cases, the peptide (e.g. LTIITLE) (SEQ ID NO: 21) or the p53 is placed in solution with thioflavin T and increasing concentrations of inhibitor. The assay is performed in a multiwall plate (e.g. a 384 well plate). This dye is amyloid specific and is only fluorescent when bound to amyloid aggregates. The fluorescence is measured over time, e.g. with a plate reader. Inhibition is detected as a delay in the onset of aggregation and/or less total amount of aggregates formed.
The designed inhibitors were synthesized and tested in an in vitro Thioflavin T aggregation assay (FIG. 3).

[5] = test system: cancer cell lines (OVCAR-3, CAOV-3, WiDr, Detroit 562) and primary cells from ovarian cancer patients; assay: Cell entry and co-localization of FITC labeled inhibitor by fluorescence microscopy; format: cell-based, human; conditions: 24 hours
Description: INH-1R CPP was covalently linked to a FITC fluorescent label and added to different cancer cell lines or primary cells directly obtained from ovarian cancer patients (as depicted here). […] The cell nuclei are stained with Hoechst 33342 (blue), while p53 is recognized by an anti-p53 antibody and stained in red. […] Protein aggregates are stained with the commercially available OC antibody (in red).
To render the inhibitors cell permeable, the inventors fused the peptide-inhibitor panel to a nine-residue poly arginine tag through a three-residue linker, of sequence RPI, derived from endogenous p53 sequence. To confirm their ability to enter cells, the cell penetrating INH-1R inhibitor was linked to a FITC moiety in order to detect the intracellular localization of the probe by fluorescence microscopy (FIG. 4). We treated different cancer cell lines, including but not limited to OVCAR-3, CAOV-3, WiDr, Detroit 562 as well as primary cells derived from cancer patients with the FITC labeled inhibitor for 24 hours. After extensive washes to remove unbound inhibitors, the cells were fixed in formaldehyde and p53 was stained using a commercially available p53 antibody. […] Additionally, the inhibitor was found co-localized with protein aggregates as stained by the conformation specific antibody OC (Kayed et al, 2007, FIG. 4B).

[6] = test system: stable cell line derived from an ovarian cancer tumor (PA40 cells); assay: p53 re-localization and refolding, DO-1 and PAb240 antibody stain; format: cell-based
Description: A stable cell line derived from an ovarian cancer tumor is stained with the commercially available DO-1 antibody which recognizes any p53, irrespective of its structural state. […] The PAb240 commercial antibody recognizes misfolded p53, therefore loss of PAb240 antigeneicity reflects a change in the p53 population from misfolded to properly folded, functionally capable protein.
(§2) Properly folded p53 is rapidly degraded in cells as a control mechanism. Misfolded/aggregated p53 cannot be efficiently targeted for degradation therefore protein levels are high in the absence of the inhibitor. This is additional evidence of the ability of the INH-1R to generate a population of folded p53.

MCF-7 (WT p53) = assay: p53 re-localization in WT p53 control cells; format: cell-based; conditions: WT p53 bearing cells MCF 7
Description: The structure-guided, rationally designed p53 amyloid inhibitors of the invention specifically target those cancer cells bearing p53 molecules having an aberrant conformation (e.g. aggregated or misfolded p53). […] We then tested the inhibitor on established cancer cell lines as well as on primary cells derived from serous ovarian cancer patients in order to confirm the clinical relevance of our findings. Our inhibitor is designed to specifically target those tumor cells expressing an altered misfolded form of p53 and should have no effect on cells bearing functional, properly folded p53 or aggregation-incompetent p53 mutants. To confirm this, we included several controls. Three established cell lines, one bearing WT p53 (MCF-7) and two which were previously characterized for their p53 aggregation status, one with a non-aggregating mutation (WiDr) and one with a p53 aggregation prone mutation (Detroit 562), were used as negative and positive controls. One of the effects of the inhibitor was to cause re-localization of p53 from the cytosolic compartment to the nucleus (FIG. 5).

OVCAR-3 cells [7] = assay: Cell death by FACS (cell size and granularity); format: cell-based; conditions: 10 μM, 24 hours
Description: Cells treated for 24 hours with either INH-1R or a control peptide were trypsinized and analyzed by FACS.

OVCAR-3 cells [8] = assay: Apoptosis and necrosis, combined Hoechst/PI/YO-PRO-1 stain; format: cell-based; conditions: 24 hours
Description: OVCAR-3 cells were treated for 24 hours with the indicated concentrations of either INH-1R CPP or a scrambled inhibitor sequence. Hoechst (blue) stains all nuclei while YO-PRO-1 (green) only stains apoptotic cells and propidium iodide (red) stains late apoptotic/necrotic cells.

OVCAR-3 cell lysates = assay: p53 levels in cell lysates by Western Blot; format: cell-based; conditions: 0, 1, 5 or 10 μM, 24 hours
Description: The properly folded p53 (see FIG. 6) can now be degraded as is WT p53. The hyperstability due to misfolding/aggregation is lost, and the protein turnover is fast.
as §2

[9] = test system: p53 target genes p21 and Mdm2; assay: Up-regulation of p53 target genes by QPCR or RNAseq; format: cell-based; conditions: tumor cells with p53 misfolding/aggregating mutations
Description: Specificity and efficacy of INH-1R CPP was confirmed by up-regulation of p53 target genes only in tumor cells containing p53 misfolding/aggregating mutations.

[10] = test system: primary cells from ovarian cancer; assay: Apoptosis (AnnexinV stain) and proliferation (Ki67 stain); format: cell-based; conditions: increasing dosage
Description: as §1

Row | SMILES | Cancer cells surviving (cell viability, MTS) ([1]; 10 μM, 2D culture) | Time serum concentration remained stable ([2]; 15 mg/kg IP) | Tmax ([2]; nude, mouse, serum, 15 mg/kg IP for three days, read-out: Time of peak serum concentration post injection) | Cmax ([2]; nude, mouse, serum, 15 mg/kg IP, 1 hour after injection, read-out: Serum peak concentration) | level at time molar at 2 h ([2]; nude, mouse, serum, 15 mg/kg IP, 2 hours, read-out: Serum concentration 2 hours post infusion) | p53 target genes MDM2 and p21 in residual tumor tissue ([3]; 15 mg/kg IP daily for 14 days) | Xenograft mass reduction in weight ([3]; 15 mg/kg intraperitoneally daily for 14 days) | Inhibition of p53 aggregation (Thioflavin T fluorescence over time) [4] | Cancer cells surviving (cell viability, MTS) ([1]; 10 µM) | Ability to enter cells (intracellular localization) [5] | Recognition of p53 by PAb240 (misfolded p53) [6] | Re-localization of p53 from cytosol to nucleus (MCF-7 (WT p53)) | Cell size and granularity (FACS) (OVCAR-3 cells [7]) | Apoptosis and necrosis (Hoechst/PI/YO-PRO-1 stain) (OVCAR-3 cells [8]) | Total amount of p53 (OVCAR-3 cell lysates) | Up-regulation of p53 target genes [9] | Apoptosis (AnnexinV stain) [10] | Cell proliferation (Ki67 stain) [10]
1 | CC[C@H](C)[C@H](NC(=O)[C@H](CCCNC(=N)N)NC(=O)[C@@H](NC(=O)[C@H](CC(C)C)NC(=O)[C@@H](NC(=O)[C@@H]1CCCN1C(=O)[C@H](CCCNC(=N)N)NC(=O)[C@H](CCCNC(=N)N)NC(=O)[C@H](CCCNC(=N)N)NC(=O)[C@H](CCCNC(=N)N)NC(=O)[C@H](CCCNC(=N)N)NC(=O)[C@H](CCCNC(=N)N)NC(=O)[C@H](CCCNC(=N)N)NC(=O)[C@H](CCCNC(=N)N)NC(=O)[C@H](CCCNC(=N)N)NC(=O)[C@@H](N)CCCNC(=N)N)[C@@H](C)CC)[C@@H](C)O)C(=O)N[C@H](C(=O)N[C@@H](CC(C)C)C(=O)N[C@@H](CCC(=O)O)C(=O)O)[C@@H](C)O [INH-1R CPP, RRRRRRRRRRPILTRITLE] | Dose dependent reduction of cell viability | up to 12 hours | 1 h | ~1200 nM | ~300 nM |  |  |  |  |  |  |  |  |  |  |  |  | 
2 | CC[C@H](C)[C@H](NC(=O)[C@H](CCCNC(=N)N)NC(=O)[C@@H](NC(=O)[C@H](CC(C)C)NC(=O)[C@@H](NC(=O)[C@@H]1CCCN1C(=O)[C@H](CCCNC(=N)N)NC(=O)[C@H](CCCNC(=N)N)NC(=O)[C@H](CCCNC(=N)N)NC(=O)[C@H](CCCNC(=N)N)NC(=O)[C@H](CCCNC(=N)N)NC(=O)[C@H](CCCNC(=N)N)NC(=O)[C@H](CCCNC(=N)N)NC(=O)[C@H](CCCNC(=N)N)NC(=O)[C@H](CCCNC(=N)N)NC(=O)[C@@H](N)CCCNC(=N)N)[C@@H](C)CC)[C@@H](C)O)C(=O)N[C@H](C(=O)N[C@@H](CC(C)C)C(=O)N[C@@H](CCC(=O)O)C(=O)O)[C@@H](C)O [INH-1R] |  |  |  |  |  | pronounced p21 and MDM2 activation | 75% | delay the aggregation onset and lower the total amount of aggregates present, in a concentration dependent fashion; also recorded: delayed the onset of aggregation and lowered the amount of aggregates present at all concentrations tested | less than 50% | able to penetrate the cell membrane, but also to actually enter the nucleus and co-localize with its target, p53 | failed to be recognized by the antibody PAb240 | not observed | a decrease in cell size and increase in granularity | Apoptosis as well as necrosis were induced specifically | decreasing in a dose dependent manner | up-regulation of p53 target genes only in tumor cells bearing aggregation-prone mutations | increase in apoptosis | decrease in cell proliferation
